From patent publication US8465963B2, “Grass endophyte enhanced attributes” (priority 2005, dated 2013)

Key:
[1] = tested on: Neotyphodium endophytes in tall fescue; settings: fungicide soak; cited from earlier work
[2] = tested on: Neotyphodium endophytes in perennial ryegrass; settings: fungicide soak; cited from earlier work
[3] = tested on: endophytes (AR502, AR542 and AR584); experiment: Trial 1 field trial: effect of fungicides on viable endophytes, means over endophytes; settings: means of all other treatments
Source text: The pH of the solution is 7.5.

[4] = tested on: ryegrass (Lolium perenne) seed infected with Neotyphodium endophyte; settings: prochloraze 1 g/kg; triticonazole 5 and 10 g/kg; cited from earlier work

Structure (SMILES): COC(=O)NC(=S)Nc1ccccc1NC(=S)NC(=O)OC [Thiophanate-methyl]
- effect of fungicide on endophyte [1]: no effect on endophyte
- effect of fungicide on endophyte [2]: little effect on endophyte

Structure (SMILES): O=CNC(N1CCN(C(NC=O)C(Cl)(Cl)Cl)CC1)C(Cl)(Cl)Cl (stereo not drawn) [Triforine]
- effect of fungicide on endophyte [1]: effective in tall fescue
- effect of fungicide on endophyte [2]: effective in some perennial ryegrass plants

Structure (SMILES): CCCCNC(=O)n1c(NC(=O)OC)nc2ccccc21 [benomyl]
- effect of fungicide on endophyte [1]: effective in killing endophyte
- effect of fungicide on endophyte [2]: effective in killing endophyte

Structure (SMILES): Fc1ccc([C@]2(Cn3cncn3)O[C@H]2c2ccccc2Cl)cc1 [epiconazole]
- level of viable endophyte [3]: most significantly reducing viable endophyte levels

Structure (SMILES): CCCN(CCOc1c(Cl)cc(Cl)cc1Cl)C(=O)n1ccnc1 [prochloraze]
- seed germination [4]: effected

Structure (SMILES): CC1(C)CCC(=Cc2ccc(Cl)cc2)C1(O)Cn1cncn1 (stereo not drawn) [triticonazole]
- seed germination [4]: effected
